Test results as given in patent US10172815B2, “Targeted treatment of anerobic cancer” (UNIVERSITY HOSPITALS CLEVELAND MEDICAL CENTER, priority 2013, dated 2019).
Several values for one entry are separate records, joined by “and”; a condition that tells them apart may be missing. Equal values may be shown once.

Key:
N1-S1 hepatoma = experiment: Additional comparison study, hepatocellular rat model, TAE combined with anti-glycolytic agents (Example 2); format: in vivo, Sprague Dawley rats; conditions: over four weeks
Method: To determine if anti-glycolytic agents (AG) combined with transarterial embolization (TAE) improves treatment of an N1-S1 tumor model implanted in Sprague-Dawley rat livers. The animal experiments were approved by the Institutional Animal Care and Use Committee. […] The agents were slowly injected within 2 minutes. […] Tumor volume (V) was calculated by the formula: V=0.5*L*W*H. Relative tumor volume after treatment was calculated as the percentage of pre-treatment tumor volume. Kruskal-Wallis test with Minitab 16 was used to compare the difference of relative tumor volume between 4 groups on each observation time point.

[1] = test system: HT29 colon cancer xenografts; experiment: DCE-MRI with GODP, AATH model, tumor vascularity; format: in vivo, athymic nude mice; conditions: 3-week time point; 10 mg/kg i.p. daily; entire tumor; mean±SD
Source text: (§1) Dynamic contrast-enhanced (DCE) MRI is a non-invasive imaging technique that is able to quantify the anatomical and physiological progression of tumor angiogenesis in response to a variety of different cancer therapies. In order to allow for the safe use of macromolecular contrast medium, a novel polydisulfide-based agent, poly([(Gd-DOTA)-DETA]-co-DTBP) (GODP) was designed, which initially starts as a macromolecular agent during an DCE-MRI protocol, and is then gradually degraded by endogenous thiols in the reductive environment of the bloodstream to improve renal clearance. In this study, two groups of 3 mice, bearing flank HT29 colon cancer xenografts, were treated daily with either bumetanide or saline for a total of 3 weeks. DCE-MRI was performed before and after the start of treatment on a weekly basis, and the collected was analyzed using the adiabiatic approximation to the tissue homogeneity (AATH) model. IHC and western blot analysis was performed to study the changes in CD31, VEGF, and tissue hypoxia.
The anti-angiogenic effects of bumetanide were investigated in a mouse model bearing subcutaneous HT29 colon adenocarcinoma xenografts. HT29 cells were initially cultured in McCoy's 5A growth media (ATCC), supplemented with 10% FBS, […] of streptomycin, and 100 units/mL of penicillin (Invitrogen). A total of 1×10^6 cells were then inoculated into athymic nude mice in a 250 μL volume of Matrigel (BD Biosciences). Before the start of treatment, tumors were allowed to grow for 10 days, until they were approximately 0.5 cm in diameter. This study comprised of 2 groups of 3 mice, one of which was treated with bumetanide, and the other with a saline control. […] Tumor growth was measured at several time points during the therapy with a caliper. Volumes were calculated using the formula […], where D1 and D2 were two diameters measured along perpendicular axes of the tumor lesion.
Changes in the tumor vascularity were monitored during the treatment by DCE-MRI. […]

VEGF = experiment: Western blot and IHC of VEGF in tumor tissue; format: in vivo, athymic nude mice; conditions: after 3 weeks of therapy; western blot; vs saline control
Source text: as §1, with “hypoxia. […] Image J software was utilized to quantify the relative protein expression of HIF-1α from the blots by calculating the total pixel intensity from each protein band, and then normalizing these signals with its corresponding β-actin stain. […]” for “hypoxia.”

HIF-1α = experiment: Western blot of HIF-1α in tumor tissue; format: in vivo, athymic nude mice; conditions: after 3 weeks of therapy, vs saline control
Method: (§2) Once the final DCE-MRI scans were complete at the end of the therapy, the mice were intravenously injected with 60 mg/kg of pimonidazole, an established marker for the detection of tissue hypoxia. After one hour following the pimonidazole staining, the tumors from these mice were resected for further biological analysis. Half of each tumor that was collected was snap-frozen in liquid nitrogen for western blot, while the other half was sliced into thin sections and formalin-fixed/paraffin-imbedded for immunohistochemistry (IHC) staining. For western blot, cell lysates from the frozen tissue were prepared by homogenizing entire tumor tissues in RIPA lysis buffer supplemented with a Halt protease inhibitor cocktail (Thermo Fisher Scientific). […] The blots were blocked for 1 hr and then stained overnight at 4° C. with primary antibodies for HIF-1α and β-actin, the latter of which serving as the housekeeper control. Image J software was utilized to quantify the relative protein expression of HIF-1α from the blots by calculating the total pixel intensity from each protein band, and then normalizing these signals with its corresponding β-actin stain. Sections of the formalin-fixed tissue were stained with the antibodies for CD31 and the Ki67 nuclear proliferation marker. They were also stained with a primary antibody for the detection of the pimonidazole hypoxia marker. […]

CD31 = experiment: IHC stain for CD31 in tumor tissue; format: in vivo, athymic nude mice; conditions: after 3-week therapy, tumor periphery and core, vs saline control
Method: as §2

Ki67 = experiment: IHC stain for Ki67 proliferation marker in tumor tissue; format: in vivo, athymic nude mice; conditions: after 3-week therapy, mean±SD
Method: Once the final DCE-MRI scans were complete at the end of the therapy, the mice were intravenously injected with 60 mg/kg of pimonidazole, an established marker for the detection of tissue hypoxia. After one hour following the pimonidazole staining, the tumors from these mice were resected for further biological analysis. Half of each tumor that was collected was snap-frozen in liquid nitrogen for western blot, while the other half was sliced into thin sections and formalin-fixed/paraffin-imbedded for immunohistochemistry (IHC) staining. For western blot, cell lysates from the frozen tissue were prepared by homogenizing entire tumor tissues in RIPA lysis buffer supplemented with a Halt protease inhibitor cocktail (Thermo Fisher Scientific). […] Image J software was utilized to quantify the relative protein expression of HIF-1α from the blots by calculating the total pixel intensity from each protein band, and then normalizing these signals with its corresponding β-actin stain. […]
Despite the fact that bumetanide inhibited angiogenesis and induced vascular regression, the therapy was not able to slow down the tumor growth rate over the course of the study. […] A Ki67 index was calculated by determining the percentage of nuclei in a given area of the tissue expressed this factor.

[2] = test system: HT29 colon cancer xenografts; experiment: Pimonidazole staining of tumor hypoxia; format: in vivo, athymic nude mice; conditions: after 3-week therapy; vs saline control
Method: as §2

[3] = test system: HT29 colon adenocarcinoma xenografts; experiment: Tumor growth measured with a caliper; format: in vivo, athymic nude mice; conditions: any point during the 3-week administration period
Method: The anti-angiogenic effects of bumetanide were investigated in a mouse model bearing subcutaneous HT29 colon adenocarcinoma xenografts. HT29 cells were initially cultured in McCoy's 5A growth media (ATCC), supplemented with 10% FBS, […] of streptomycin, and 100 units/mL of penicillin (Invitrogen). A total of 1×10^6 cells were then inoculated into athymic nude mice in a 250 μL volume of Matrigel (BD Biosciences). Before the start of treatment, tumors were allowed to grow for 10 days, until they were approximately 0.5 cm in diameter. This study comprised of 2 groups of 3 mice, one of which was treated with bumetanide, and the other with a saline control. The drug and saline control were injected intraperitoneally on a daily basis for 3 weeks, with a bumetanide dose of 10 mg/kg. All mice were sacrificed on day 21 of the treatment regimen. Tumor growth was measured at several time points during the therapy with a caliper. Volumes were calculated using the formula […], where D1 and D2 were two diameters measured along perpendicular axes of the tumor lesion.

| SMILES | relative tumor volume comparing the different treatments (FIG. 25) (N1-S1 hepatoma) | average decrease in Fp (blood flow rate) between pre- and post-treatment levels [1] [%] | average reduction in PS (permeability-surface area product) from pre-treatment level [1] [%] | average reduction in Vp (fractional plasma volume) from pre-treatment level [1] [%] | VEGF protein levels lower than in control tumors (VEGF) [%] | HIF-1α expression greater than in control tumors (HIF-1α) | CD31 expression (CD31) | Ki67 index (percentage of nuclei expressing Ki67) (Ki67) [%] | tumor hypoxia (pimonidazole staining intensity) [2] | tumor size versus saline control [3] |
| --- | --- | --- | --- | --- | --- | --- | --- | --- | --- | --- |
| COc1cc(/C=C/C(=O)O)ccc1O [ferulic acid] | effective at reducing tumor volume |  |  |  |  |  |  |  |  |  |
| CCCCNc1cc(C(=O)O)cc(S(N)(=O)=O)c1Oc1ccccc1 [bumetanide, 3-butylamino-4-phenoxy-5-sulfamoyl-benzoic acid] | effective at reducing tumor volume | 71.2±8.01 | 72.2±9.26 | 75.6±8.97 | 42.9 | 59.1% and 59.2% | significant decrease | ~24.7±4.51 | increase | no significant difference |
| O=C(O)/C=C/c1ccc(O)c(O)c1 [caffeic acid] | effective at reducing tumor volume |  |  |  |  |  |  |  |  |  |
